Experimental data: publication PMC5607274, “An iterative compound screening contest method for identifying target protein inhibitors using the tyrosine-protein kinase Yes” (Scientific Reports, 2017)

What follows are compounds tested against T1, human recombinant Yes [a.a. 2–543 (end)] (Homo sapiens, UniProt P07947) (assay: ADP-Glo kinase assay, inhibition rates of Yes phosphorylation activity (first and second screening)). Details: first screening; mean of n = 4 wells; 10 μmol L−1 compound.
T1 construct: human recombinant Yes [a.a; 2–543 (end)]; purchased BPS Bioscience 40488
T1 sequence (P07947 2-543): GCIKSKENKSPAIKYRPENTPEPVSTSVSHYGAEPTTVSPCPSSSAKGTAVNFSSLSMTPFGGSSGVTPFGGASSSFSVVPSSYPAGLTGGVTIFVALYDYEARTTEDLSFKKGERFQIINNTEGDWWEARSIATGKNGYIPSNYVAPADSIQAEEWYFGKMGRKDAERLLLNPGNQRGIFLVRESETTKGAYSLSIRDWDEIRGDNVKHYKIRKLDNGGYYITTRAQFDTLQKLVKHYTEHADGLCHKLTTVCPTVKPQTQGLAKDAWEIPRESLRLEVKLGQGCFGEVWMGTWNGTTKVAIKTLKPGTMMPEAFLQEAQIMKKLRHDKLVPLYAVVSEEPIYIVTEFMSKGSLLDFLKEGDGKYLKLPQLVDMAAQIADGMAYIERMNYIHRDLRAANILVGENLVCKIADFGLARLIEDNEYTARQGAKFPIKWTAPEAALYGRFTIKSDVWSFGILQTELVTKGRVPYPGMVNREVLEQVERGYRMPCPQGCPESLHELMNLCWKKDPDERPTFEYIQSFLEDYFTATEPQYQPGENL
Type: biochemical
Outline: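 Hits from a first pass were rescreened after re-dissolution from fresh powder. The first pass reported the mean inhibition rate of quadruplicate wells per compound. Activity was that of recombinant human Yes [a.a. 2–543] kinase, read out with the ADP-Glo ADP-detection method.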
With N#CC(C(=O)NCc1ccc2c(c1)OCO2)c1nc2ccccc2nc1N1CCN(Cc2ccccc2)CC1 (centres unmarked) [Compound Z56854297] the “First screening IR (inhibition rate)” value was -7%. In the case of Nc1c(S(=O)(=O)c2ccccc2)c2nc3ccccc3nc2n1CCNC(=O)c1ccc(Cl)cc1 [Compound Z56854331], the “First screening IR (inhibition rate)” value is reported as 9%. With CCOC(=O)c1c(-c2ccc(C)cc2)csc1Nc1nc2ccccc2nc1N1CCN(CC)CC1 [Compound Z56854384] the “First screening IR (inhibition rate)” value was -3%. In the case of COc1ccc(-n2nnc3c4c(c(Nc5ccc(C)cc5)cc32)C(=O)c2ccccc2C4=O)cc1 [Compound Z56857970], the “First screening IR (inhibition rate)” value is reported as 7%. With COc1ccc(Nc2cc3c(nnn3-c3ccc(C)cc3)c3c2C(=O)c2ccccc2C3=O)cc1 [Compound Z56857974] the “First screening IR (inhibition rate)” value was 2%. In the case of CN(C)S(=O)(=O)c1cc(S(=O)(=O)c2ccc(Cl)c(S(=O)(=O)N(C)C)c2)ccc1Cl [Compound Z56862791], the “First screening IR (inhibition rate)” value is reported as 1%. Cc1cc(=O)[nH]c(SCC(=O)c2ccc3c(c2)NC(=O)CO3)n1 [Compound Z56863397] was tested, and the “First screening IR (inhibition rate)” value was -14%. Cc1cccc(C)c1N=C1SC(C(=O)Nc2ccc(OC(F)F)cc2)C(N)=C1C(=O)N1CCN(C)CC1 (centres unmarked) [Compound Z56863426] was tested, and the “First screening IR (inhibition rate)” value was 15%. CCCCC(CC)CN1C(=O)/C(=C/c2c(NCCCn3ccnc3)nc3c(C)cccn3c2=O)SC1=S (centres unmarked) [Compound Z56863942] was tested, and the “First screening IR (inhibition rate)” value was 0%. With CCCCCCCCN1C(=O)/C(=C/c2c(NCCCN3CCOCC3)nc3c(C)cccn3c2=O)SC1=S [Compound Z56863983] the “First screening IR (inhibition rate)” value was 0%. With O=C(NC1(C(F)(F)F)Oc2ccccc2O1)Sc1ccccc1 [Compound Z56864837] the “First screening IR (inhibition rate)” value was 42%. For COc1ccc(/C(O)=C2\C(=O)C(=O)N(CCN3CCNCC3)C2c2cccc(Oc3ccccc3)c2)cc1 (centres unmarked) [Compound Z56865657], the “First screening IR (inhibition rate)” value was 6%. In the case of Cc1cc(/C(O)=C2\C(=O)C(=O)N(CCN3CCOCC3)C2c2ccc(F)cc2)ccc1OCC(C)C (centres unmarked) [Compound Z56865693], the “First screening IR (inhibition rate)” value is reported as -1%. For CCOC(=O)c1c(Nc2nc3ccccc3nc2N2CCN(Cc3ccccc3)CC2)sc(C)c1C [Compound Z56866112], the “First screening IR (inhibition rate)” value was 2%. With COC(=O)c1c(Nc2nc3ccccc3nc2N2CCN(C/C=C/c3ccccc3)CC2)sc(C)c1C [Compound Z56867786] the “First screening IR (inhibition rate)” value was 11%. O=S(=O)(c1cccc(-c2n[nH]c(-c3ccccc3)c2-c2nc3ccccc3[nH]2)c1)N1CCCC1 [Compound Z56870429] was tested, and the “First screening IR (inhibition rate)” value was -20%. With COc1ccc(CCn2c(N)c(C(=O)NCc3ccc4c(c3)OCO4)c3nc4ccccc4nc32)cc1OC [Compound Z56872869] the “First screening IR (inhibition rate)” value was 34%. In the case of CCCCCn1c(N)c(C(=O)NCCN2CCOCC2)c2nc3ccccc3nc21 [Compound Z56872965], the “First screening IR (inhibition rate)” value is reported as 48%. In the case of NS(=O)(=O)c1ccc(Cl)c(S(N)(=O)=O)c1 [Compound Z56877166], the “First screening IR (inhibition rate)” value is reported as 0%. CN(C)S(=O)(=O)c1ccc(Cl)c(S(=O)(=O)N(C)C)c1 [Compound Z56877204] was tested, and the “First screening IR (inhibition rate)” value was 7%. CN(C)S(=O)(=O)c1cccc(S(=O)(=O)c2cccc(S(=O)(=O)N(C)C)c2)c1 [Compound Z56877233] was tested, and the “First screening IR (inhibition rate)” value was 7%. With CC(c1ccccc1)n1c(NC(=O)c2ccccc2)c(S(=O)(=O)c2ccccc2)c2nc3ccccc3nc21 (centres unmarked) [Compound Z56877281] the “First screening IR (inhibition rate)” value was -3%. For NS(=O)(=O)c1cc(S(=O)(=O)c2ccc(Cl)c(S(N)(=O)=O)c2)ccc1Cl [Compound Z56888775], the “First screening IR (inhibition rate)” value was -18%. For CSc1ncccc1C(=O)OCC(=O)Nc1nc2ccccc2s1 [Compound Z56896575], the “First screening IR (inhibition rate)” value was -4%. For Cc1c(N=C2SC(CC(=O)Nc3ccc(F)cc3)C(=O)N2CC2CCCCC2)c(=O)n(-c2ccccc2)n1C (centres unmarked) [Compound Z56900652], the “First screening IR (inhibition rate)” value was 8%. With Cc1ccc(/C=C/C2=Cc3c(sc(N)c3C#N)C(C)(C)C2)o1 [Compound Z56910454] the “First screening IR (inhibition rate)” value was 31%. For Cl.Nc1ccc(-c2cc(-c3ccccc3)c3cc(Cl)ccc3n2)cc1 [Compound Z56913268], the “First screening IR (inhibition rate)” value was -5%. In the case of CC(=O)c1cccc(NC(=O)c2sc(Nc3ccc(C)cc3)c(C(=O)NCCN3CCOCC3)c2N)c1 [Compound Z56914008], the “First screening IR (inhibition rate)” value is reported as -3%. COc1ccc(NC(=O)c2c(Nc3ccc(OC(F)F)cc3)sc(C(=O)Nc3ccc4c(c3)OCO4)c2N)cc1Cl [Compound Z56918070] was tested, and the “First screening IR (inhibition rate)” value was 16%. For Cc1[nH]n(-c2ccccc2)c(=O)c1/C(=N/NC(=O)c1cc(-c2ccccc2)n[nH]1)c1ccccc1 [Compound Z56919929], the “First screening IR (inhibition rate)” value was 1%. With Cc1ccc(-c2nn3c(=O)c4c5c(sc4nc3c3ccccc23)CC(C(C)(C)C)CC5)cc1 (centres unmarked) [Compound Z56929220] the “First screening IR (inhibition rate)” value was -24%. For Nc1ncnc(Nc2ccc(F)cc2)n1 [Compound Z56931701], the “First screening IR (inhibition rate)” value was -4%. In the case of Nc1ncnc(Nc2ccccc2F)n1 [Compound Z56931704], the “First screening IR (inhibition rate)” value is reported as 12%. In the case of Nc1ncnc(Nc2cccc(C(F)(F)F)c2)n1 [Compound Z56931708], the “First screening IR (inhibition rate)” value is reported as 13%. In the case of COc1ccc(Nc2ncnc(N)n2)cc1 [Compound Z56938001], the “First screening IR (inhibition rate)” value is reported as 14%. For N#Cc1c(NC(=O)COC(=O)c2cn(-c3ccccc3)nc2-c2cccnc2)oc(-c2ccccc2)c1-c1ccccc1 [Compound Z56941227], the “First screening IR (inhibition rate)” value was -9%. In the case of COc1ccc(CCNC(=O)Cn2c(CN3CCOCC3)nc3sc4c(c3c2=O)CCC(C)C4)cc1 (centres unmarked) [Compound Z56952971], the “First screening IR (inhibition rate)” value is reported as -10%. In the case of Cc1ccc(N(C(=O)c2ccc(C(C)(C)C)cc2)C2C=CS(=O)(=O)C2)cc1 (centres unmarked) [Compound Z56970107], the “First screening IR (inhibition rate)” value is reported as 4%. In the case of O=S(=O)(Cl)c1ccc(S(=O)(=O)N2CCCC2)cc1 [Compound Z56979291], the “First screening IR (inhibition rate)” value is reported as 9%. CCOc1ccc(-c2nc3ccccc3c(-c3ccccc3)c2Cl)cc1.Cl [Compound Z57038735] was tested, and the “First screening IR (inhibition rate)” value was 51%. For Cc1cc(C)c(NC(=O)C2CCN(c3ncnc4sc(C)c(C)c34)CC2)c(C)c1 [Compound Z57042877], the “First screening IR (inhibition rate)” value was 0%. With COc1ccc(Nc2nc(NCCN3CCOCC3)nc(Nc3ccc(OC)cc3)n2)cc1 [Compound Z57049315] the “First screening IR (inhibition rate)” value was 6%. In the case of O=S1(=O)C=C(Cl)C(Br)C1 (centres unmarked) [Compound Z57056476], the “First screening IR (inhibition rate)” value is reported as 1%. For O=S1(=O)CCC(SSC2CCS(=O)(=O)C2)C1 (centres unmarked) [Compound Z57056477], the “First screening IR (inhibition rate)” value was 3%. O=S1(=O)CCC(S(=O)(=O)c2ccccc2)C1 (centres unmarked) [Compound Z57056479] was tested, and the “First screening IR (inhibition rate)” value was 4%. For O=S1(=O)CCC(S(=O)(=O)Cl)C1 (centres unmarked) [Compound Z57163399], the “First screening IR (inhibition rate)” value was -7%. O=S1(=O)CC=C(S(=O)(=O)Cl)C1 [Compound Z57163400] was tested, and the “First screening IR (inhibition rate)” value was 4%. Cc1ccc(C(=O)CC2(O)C(=O)Nc3ccc(Cl)cc32)cc1 (centres unmarked) [Compound Z57172226] was tested, and the “First screening IR (inhibition rate)” value was 2%. With O=c1c2cccc3c2c(nn1-c1ccccc1)-c1ccccc1-3 [Compound Z57229152] the “First screening IR (inhibition rate)” value was 18%. For O=C(C1=C(O)C(=O)N(CCCn2ccnc2)C1c1ccc(Cl)cc1)c1ccco1 (centres unmarked) [Compound Z57237929], the “First screening IR (inhibition rate)” value was 20%. O=C(C1=C(O)C(=O)N(CCCn2ccnc2)C1c1cccc([N+](=O)[O-])c1)c1ccco1 (centres unmarked) [Compound Z57237939] was tested, and the “First screening IR (inhibition rate)” value was 62%. COCCNC(=O)/C(=C\c1ccc(-c2cccc(Cl)c2)o1)NC(=O)c1ccc(OC)cc1 [Compound Z57239420] was tested, and the “First screening IR (inhibition rate)” value was 46%. O=C(NCCCn1ccnc1)/C(=C/c1ccc(-c2cccc(Cl)c2)o1)NC(=O)c1ccccc1 [Compound Z57239426] was tested, and the “First screening IR (inhibition rate)” value was 2%. With O=C1C(=O)N(CCCn2ccnc2)C(c2ccc(F)cc2)/C1=C(\O)c1ccc(Cl)cc1 (centres unmarked) [Compound Z57239976] the “First screening IR (inhibition rate)” value was -5%. With Cc1ccnc(Nc2nc3ccccc3s2)n1 [Compound Z57289339] the “First screening IR (inhibition rate)” value was -13%. For O=S(=O)(Nc1cccc(-c2cn3ccccc3n2)c1)c1ccccc1 [Compound Z57289575], the “First screening IR (inhibition rate)” value was 41%. In the case of O=C(N/N=C/c1ccco1)c1cc(-c2ccc(Br)s2)[nH]n1 [Compound Z57393573], the “First screening IR (inhibition rate)” value is reported as -9%. In the case of Clc1ccc2nc(NC3=NCN(CCN4CCOCC4)CN3)nc(-c3ccccc3)c2c1 [Compound Z57440306], the “First screening IR (inhibition rate)” value is reported as 4%. With Fc1ccc(-n2cc(-c3ccccc3)c3c(N4CCOCC4)ncnc32)cc1 [Compound Z57455467] the “First screening IR (inhibition rate)” value was 5%. In the case of COc1ccc(-n2cc(-c3ccccc3)c3c(NCCCO)ncnc32)cc1 [Compound Z57455872], the “First screening IR (inhibition rate)” value is reported as 1%. COCCNc1ncnc2c1c(-c1ccccc1)cn2-c1ccc(OC)cc1 [Compound Z57455912] was tested, and the “First screening IR (inhibition rate)” value was 16%. For OCCNc1ncnc2c1c(-c1ccccc1)cn2-c1ccc(F)cc1 [Compound Z57455953], the “First screening IR (inhibition rate)” value was -6%. In the case of COc1ccc(-n2cc(-c3ccccc3)c3c(NCCOCCO)ncnc32)cc1 [Compound Z57456127], the “First screening IR (inhibition rate)” value is reported as -8%. In the case of CCOc1ccc(-n2cc(-c3ccccc3)c3c(NCCO)ncnc32)cc1 [Compound Z57456164], the “First screening IR (inhibition rate)” value is reported as 20%. In the case of Cc1ccc(Cn2ncc3c(NN)ncnc32)cc1 [Compound Z57458515], the “First screening IR (inhibition rate)” value is reported as 9%. CCS(=O)(=O)Nc1ccc(C2=NN(S(=O)(=O)c3ccc(C)cc3)C(c3ccco3)C2)cc1 (centres unmarked) [Compound Z57514609] was tested, and the “First screening IR (inhibition rate)” value was 23%. Oc1ccc(F)cc1C1=NNC(c2cc(Br)cc3c2OCOC3)C1 (centres unmarked) [Compound Z57604399] was tested, and the “First screening IR (inhibition rate)” value was -12%.

Same assay, conditions: second screening, dissolved from fresh powder; n = 4; 10 μmol L−1 compound
COc1ccc(CCn2c(N)c(C(=O)NCc3ccc4c(c3)OCO4)c3nc4ccccc4nc32)cc1OC [Compound Z56872869] was tested, and the “Second screening IR (inhibition rate)” value was -24%. For Cc1ccc(/C=C/C2=Cc3c(sc(N)c3C#N)C(C)(C)C2)o1 [Compound Z56910454], the “Second screening IR (inhibition rate)” value was 36%. In the case of CCOc1ccc(-c2nc3ccccc3c(-c3ccccc3)c2Cl)cc1.Cl [Compound Z57038735], the “Second screening IR (inhibition rate)” value is reported as 2%. In the case of O=C(C1=C(O)C(=O)N(CCCn2ccnc2)C1c1cccc([N+](=O)[O-])c1)c1ccco1 (centres unmarked) [Compound Z57237939], the “Second screening IR (inhibition rate)” value is reported as -11%.
